Data on 27 compounds can be found in PubChem BioAssay (NCI).

Common to all, as to assay: DTP human tumour cell line panel, 48 h
Assay [1] deals with MDA-MB-435.
Assay [2] concerns SK-OV-3 ovarian.
The subject of assay [3] is CCRF-CEM leukemia.
For assay [4], the system named is SR leukemia.
For assay [5], the system named is HS 578T breast.
In assay [6] the test system is UACC-62 melanoma.
Assay [7] relates to HL-60(TB) leukemia.
Assay [8] relates to SK-MEL-5 melanoma.
In assay [9] the test system is SW-620 colon.
Assay [10] deals with HCT-15 colon.

The structures appear in SMILES notation.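 Cultured in 96-well plates, cells were exposed to test compound for 48 hours across five concentrations. GI50: concentration for 50% inhibition of growth. TGI denotes the concentration required for complete inhibition of growth.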 Where a SMILES comes first, the peptide text is derived from it. [ ]: non-standard residue; d: D form. The star is where a group is joined. Cbz = O=C(OCc1ccccc1)*; Boc = CC(C)(C)OC(=O)*; Aib = CC(C)(N)C(=O)O; OBn = c1ccc(CO*)cc1; OtBu = CC(C)(C)O*; βAla = NCCC(=O)O

As for `CCOC(=O)C(Cc1ccccc1)(Cc1ccc(O)cn1)NC(=O)c1ccccc1` (stereo not given), the TGI was 30.1 µM in [1]; above 100 µM in assay [2]; above 100 µM in assay [3]; above 100 µM in [4]; 63.6 µM in assay [5]; 46 µM in assay [6]. Further, the TGI in [7] is 43.8 µM; in [8], 36.6 µM; in assay [9] it was above 100 µM; in assay [10], above 100 µM.
Consider `O=C(c1ccco1)N(C(=S)OCc1ccccn1)c1ccccc1`, for which the TGI in assay [1] was above 100 µM; in [2] it was above 100 µM; in [3], above 100 µM; in assay [4], 8.58 µM; in assay [5], above 100 µM; in [6] it was above 100 µM. Moreover, the TGI in assay [7], in assay [8], in assay [9] and in [10] was above 100 µM throughout.
In the case of `CCOC(=O)C1=C(C)NC(=S)NC1c1cccc(O)c1` (stereo not given), the TGI was 38 µM in [1]; above 100 µM in assay [2]; above 89.9 µM in assay [3]; above 95.6 µM in assay [4]; above 100 µM in assay [5]; above 96.6 µM in [6]. Besides, the TGI in assay [7] is 77.5 µM; in assay [8] it was above 100 µM; in assay [9] it was above 100 µM; in [10] it was above 100 µM.
For `CSc1ncc2c(n1)-c1ccccc1OC2N1CCCC1` (stereo not given), the TGI in assay [1], in assay [2], in assay [3], in assay [4], in [5] and in [6] was above 100 µM throughout. Besides, the TGI in assay [7], in assay [8], in assay [9] and in assay [10] was above 100 µM in each case.
Turning to `O=C1NC(N/N=C\c2ccccc2)=N/C1=C/c1ccc(Cl)cc1`, the concentration for total growth inhibition (TGI) was above 100 µM in assay [1]; 43.4 µM in assay [2]; 40.1 µM in [4]; 51.4 µM in assay [5]; 43.9 µM in [8]; above 100 µM in assay [9]. In addition, the TGI in [10] was found to be 62.7 µM.
Take `O=C1c2ccccc2CC12Cc1ccc3c(c1C2)CCC3` (stereo not given): the TGI is 33.7 µM in [1]; above 100 µM in [2]; 49.3 µM in [3]; 44.1 µM in assay [4]; 83.4 µM in assay [5]; 60.5 µM in assay [6]. Also, the TGI in [7] is 42.1 µM; in assay [8], 28.8 µM; in assay [9] it was above 100 µM; in assay [10], 31.6 µM.
Regarding `Cc1cc(S(=O)(=O)Nc2nnc3cc(C(F)(F)F)cc(C)n23)c(S)cc1Cl`, the TGI in [1] was above 100 µM; in assay [2], above 90.2 µM; in assay [3], above 100 µM; in [4], above 100 µM; in [5] it was above 100 µM; in assay [6], above 100 µM. Also, the TGI in assay [7], in assay [8], in assay [9] and in [10] was above 100 µM in each case.
On to `CN1CC(c2ccccc2)N(CCCCN2CC(c3ccccc3)N(C)CC2c2ccccc2)CC1c1ccccc1` (stereo not given), for which the TGI in assay [1], in [2], in [3], in assay [4], in assay [5] and in [6] was above 100 µM in each case. Besides, the TGI in assay [7], in [8], in assay [9] and in [10] was above 100 µM throughout.
With `CCCCCCCCCCCCCCCCCCOCC(O)COP(=O)(O)OCC1OC(n2cc(F)c(=O)[nH]c2=O)CC1O` (stereo not given), the TGI in [1] was above 52.1 µM; in assay [2], 44.8 µM; in [3] it was 16.5 µM; in assay [4], 22.6 µM; in assay [5], 23.5 µM; in assay [6], 9.7 µM. In addition, the TGI in assay [7] is 25.1 µM; in assay [8], 24.1 µM; in [9] it was above 61.4 µM; in assay [10], 23.7 µM.
Consider `N#CCc1nc(C#N)c(N)o1`, for which the TGI in assay [1], in [2], in [3], in assay [4], in [5] and in assay [6] was above 100 µM each time. The TGI in assay [7], in assay [8], in [9] and in assay [10] was above 100 µM in each case. Also, the GI50 in assay [7] and in [8] was above 100 µM throughout.
Consider `CCOC(=O)c1c(N2CCOCC2)[nH]c(=O)c(C(c2ccc(OC)cc2)c2c(O)c(C(=O)OCC)c(N3CCOCC3)[nH]c2=O)c1O`, for which the TGI in assay [1], in assay [2], in [3], in assay [4], in [5] and in assay [6] was above 100 µM throughout. Also, the TGI in [8], in [9] and in assay [10] was above 100 µM each time.
For `NC(=O)CC(Nc1ncc2c(n1)-c1ccccc1OC2)C(=O)O` (stereo not given), the TGI in assay [1], in assay [2], in [3], in [4], in assay [5] and in [6] was above 100 µM throughout. In addition, the TGI in assay [7] is 36.8 µM; in [8] it was above 100 µM; in assay [9], above 100 µM; in assay [10], above 100 µM.
For the compound `CCCCSc1n/c(=C\c2ccc(N(C)C)cc2)c2nnnn12`, the TGI in [1], in [2], in assay [4], in assay [5], in assay [6] and in assay [7] was above 100 µM throughout. In addition, the TGI in assay [9] and in assay [10] was above 100 µM in each case.
On to `COc1ccc2c(c1)CCc1c-2n(CCN(C)C)c2ccc(OC)cc12`, for which the TGI was 32.6 µM in assay [1]; 87.1 µM in [2]; 9.5 µM in assay [3]; above 100 µM in [4]; 77 µM in assay [5]; above 100 µM in assay [6]. Besides, the TGI in [8] is above 100 µM; in assay [9], 74.5 µM; in assay [10] it was above 100 µM.
`COc1cc2ccnc3c2c(c1O)N(C)C=C3`: the TGI in assay [1] is above 86.5 µM; in [2], 27.4 µM; in assay [3], above 100 µM; in assay [4] it was above 100 µM; in assay [5] it was 53.1 µM; in assay [6] it was 25.6 µM. Moreover, the concentration for total growth inhibition (TGI) in [8] is 32.5 µM; in [9], above 100 µM; in assay [10] it was above 64.2 µM.
With `COC(OC)C(O)C1OC=CC1n1cnc2c(N)ncnc21` (stereo not given), the TGI in assay [1], in assay [2], in assay [3], in [4], in [5] and in assay [6] was above 100 µM throughout. Also, the TGI in assay [8], in [9] and in assay [10] was above 100 µM each time.
Regarding `CSC1SCC2C(=O)N(C)C3(CC3C)C(=O)OCC(NC(=O)c3nc4ccccc4cc3O)C(=O)NC(C)C(=O)N(C)C1C(=O)N(C)C1(CC1C)C(=O)OCC(NC(=O)c1nc3ccccc3cc1O)C(=O)NC(C)C(=O)N2C` (stereo not given), the TGI is below 0.0001 µM in [1]; 17.2 µM in assay [2]; below 0.0001 µM in assay [3]; below 0.0001 µM in assay [4]; below 0.0001 µM in assay [5]; below 0.0001 µM in assay [6]. The figures for the TGI in assay [7] and in assay [9] were below 0.0001 µM and above 100 µM, respectively.
With `CSCCC(NC(=O)OC(C)(C)C)C(=O)NCCNc1ccc(NCCNC(=O)C(CCSC)NC(=O)OC(C)(C)C)c2c1C(=O)c1ccccc1C2=O` (stereo not given), the TGI in assay [1] was 7.49 µM; in [2] it was 32.9 µM; in assay [3], above 38 µM; in assay [4] it was 11.3 µM; in assay [5], 31.2 µM; in [6], 14.4 µM. The values for the TGI in [8], in assay [9] and in assay [10] were 13.2 µM, 7.3 µM and above 100 µM, respectively.
For the compound `COc1ccc(CNc2nc(NCc3ccc(OC)cc3)nc(N3CCOCC3)n2)cc1`, the TGI in [1] was 4.66 µM; in assay [2] it was above 100 µM; in assay [4], 4.92 µM; in assay [5], above 100 µM; in [6], above 100 µM; in [7], 13.6 µM. Besides, the figures for the TGI in assay [8], in assay [9] and in [10] were 24.4 µM, above 100 µM and 6.21 µM, respectively.
As for `CC(C)(C)OC(=O)N1C(OP(=O)(Oc2ccccc2)Oc2ccccc2)=COc2cccnc21`, the TGI in [1] was above 100 µM; in assay [2], above 100 µM; in assay [4] it was 82.9 µM; in [5], above 100 µM; in assay [6], above 100 µM; in assay [7], 36.6 µM. Also, the total growth inhibition concentration (TGI) in assay [8] is 35.5 µM; in [9], above 100 µM; in [10] it was above 100 µM.
Take `O=C1[C@@H]2Cc3c([nH]c4ccccc34)C(C3CCCCC3)N2C(=O)[C@@H]2CCCN12` (stereo not given in full): the TGI in assay [1] was above 100 µM; in assay [2], above 100 µM; in assay [4], 46.8 µM; in assay [5], 68.7 µM; in assay [6] it was 49 µM; in assay [7], 59.2 µM. The TGI in assay [8] is 35.7 µM; in assay [9] it was above 100 µM; in assay [10], above 100 µM.
With `CCCCCCCCCCCCCCCCNc1nc(=O)n(C2CC(O)C(CO)O2)cc1F` (stereo not given), the TGI in [1] is 24.6 µM; in assay [2], 28.3 µM; in [4], 26.3 µM; in [5], 38.7 µM; in assay [6], 22.8 µM; in assay [7] it was 27.7 µM. In addition, the results for the TGI in [8], in [9] and in assay [10] were 48.1 µM, 32.1 µM and 26.1 µM, respectively.
`CC(C)(C)OC(=O)CC(NC(=O)OC(C)(C)C)C(=O)NC(CCCCNC(=O)OCc1ccccc1)C(=O)NC(C)(C)C(=O)NCCC(=O)OCc1ccccc1` (stereo not given) (Boc-D(OtBu)K(Cbz)[Aib][βAla]-OBn; configuration not given here): the TGI in assay [1], in assay [2], in assay [4], in assay [5], in assay [6] and in [7] was above 100 µM throughout. Further, the TGI in [8], in [9] and in assay [10] was above 100 µM in each case.
As for `Cc1ccc2c(c1)OC1Nc3ccccc3C1=C2O` (stereo not given), the TGI in assay [1] was 95.9 µM; in assay [2], 64.3 µM; in [4], above 100 µM; in assay [5] it was above 100 µM; in [6], 48 µM; in [7], 43.1 µM. For the same compound, the figures for the TGI in assay [8], in assay [9] and in assay [10] were 34 µM, above 100 µM and above 100 µM, respectively.
As for `O=C(O)c1ccccc1/C=N\NC1=NCCCCN1`, the total growth inhibition concentration (TGI) in assay [1], in assay [2], in assay [3], in assay [4], in assay [5] and in assay [6] was above 100 µM in each case. Besides, the TGI in [8], in assay [9] and in assay [10] was above 100 µM in each case.
For the compound `COc1cccc(-c2nc3sccn3c2-c2ccnc(NCCNC(=O)Nc3cccc(C(F)(F)F)c3)n2)c1`, the GI50 is 2.95 µM in assay [1]; 3.43 µM in assay [3]; 3.75 µM in assay [4]; 3.15 µM in assay [5]; 2.55 µM in assay [6]; 2.92 µM in [7]. For the same compound, the GI50 in assay [8] is 4.27 µM; in [9], 4.47 µM; in assay [10] it was 3.05 µM. The TGI in [1] is 12.3 µM; in [3] it was above 100 µM; in assay [4] it was 29.7 µM; in [5], 29 µM; in [6] it was 7.48 µM; in assay [7] it was 7.43 µM. Moreover, the results for the TGI in assay [8], in assay [9] and in assay [10] were 15.9 µM, 91.5 µM and 16.4 µM, respectively.
On to `NC(N)=N/N=C/c1nc2sccn2c1[N+](=O)[O-]`, for which the TGI is 39.9 µM in assay [1]; above 100 µM in [2]; above 100 µM in [4]; 98.4 µM in assay [5]; above 100 µM in assay [6]; 34.1 µM in assay [7]. The TGI is 33.9 µM in [8], above 100 µM in assay [9] and above 100 µM in [10].
